What was measured:
[1] = biological target: human GPR88 (Homo sapiens, UniProt Q9GZN0); test: Lance cAMP assay using stable PPLS-HA-GPR88 CHO cells; format: cell-based
[2] = test system: GPR88; details: HTRF cAMP assay; ref 13 (Bi et al.); cited from earlier work
[3] = test system: P-glycoprotein; details: reported; cited from earlier work

human GPR88, sequence (Q9GZN0 whole entry): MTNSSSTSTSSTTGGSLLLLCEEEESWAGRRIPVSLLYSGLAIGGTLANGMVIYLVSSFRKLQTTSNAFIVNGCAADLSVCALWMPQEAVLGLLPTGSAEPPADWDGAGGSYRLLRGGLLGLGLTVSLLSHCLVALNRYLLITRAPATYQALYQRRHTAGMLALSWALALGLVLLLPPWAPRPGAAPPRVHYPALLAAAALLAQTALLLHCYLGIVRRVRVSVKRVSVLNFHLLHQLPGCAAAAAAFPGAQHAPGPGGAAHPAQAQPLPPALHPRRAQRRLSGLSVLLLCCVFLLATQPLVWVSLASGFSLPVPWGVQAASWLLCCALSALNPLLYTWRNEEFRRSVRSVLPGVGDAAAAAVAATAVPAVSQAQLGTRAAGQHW

Structure (SMILES)	EC50 ([1]; EC50) [nM]	other results
CC[C@H](C)[C@H](N)CN(C(=O)[C@@H]1C[C@H]1c1ccccn1)c1ccc(-c2ccc(C3CCCCC3)cc2)cc1 (relative stereo) [5h, (1R*,2R*)-2-(Pyridin-2-yl)cyclopropanecarboxylic Acid [(2S,3S)-2-Amino-3-methylpentyl]-(4′-cyclohexylbiphenyl-4-yl)amide]	176	EC50 ([1]; pEC50): 174 nM
CC[C@H](C)[C@H](N)CN(C(=O)[C@@H]1C[C@H]1c1ccccn1)c1ccc(-c2ccc(O)cc2)cc1 (relative stereo) [5v, (1R*,2R*)-2-(Pyridin-2-yl)cyclopropanecarboxylic Acid [(2S,3S)-2-Amino-3-methylpentyl]-(4′-hydroxybiphenyl-4-yl)amide]	2860	agonist activity in words ([1]; qualitative SAR statement, Lance cAMP assay): significant decrease in activity
CC[C@H](C)[C@H](N)CN(C(=O)[C@@H]1C[C@H]1c1ccccn1)c1ccc(-c2ccc(C(F)(F)F)cc2)cc1 (relative stereo) [5b, (1R*,2R*)-2-(Pyridin-2-yl)cyclopropanecarboxylic Acid [(2S,3S)-2-Amino-3-methylpentyl]-(4′-trifluoromethylbiphenyl-4-yl)amide]	187	
CC[C@H](C)[C@H](N)CN(C(=O)[C@@H]1C[C@H]1c1ccccn1)c1ccc(-c2ccc(C(C)=O)cc2)cc1 (relative stereo) [5t, (1R*,2R*)-2-(Pyridin-2-yl)cyclopropanecarboxylic Acid [(2S,3S)-2-Amino-3-methylpentyl]-(4′-acetylbiphenyl-4-yl)amide]	351	
CCCCCCc1ccc(-c2ccc(N(C[C@@H](N)[C@@H](C)CC)C(=O)[C@@H]3C[C@H]3c3ccccn3)cc2)cc1 (relative stereo) [5g, (1R*,2R*)-2-(Pyridin-2-yl)cyclopropanecarboxylic Acid [(2S,3S)-2-Amino-3-methylpentyl]-(4′-hexylbiphenyl-4-yl)amide]	136	
CC[C@H](C)[C@H](N)CN(C(=O)[C@@H]1C[C@H]1c1ccccn1)c1ccc(-c2ccc(C(C)C)cc2)cc1 (relative stereo) [5d, (1R*,2R*)-2-(Pyridin-2-yl)cyclopropanecarboxylic Acid [(2S,3S)-2-Amino-3-methylpentyl]-(4′-isopropylbiphenyl-4-yl)amide]	260	
CCCc1ccc(-c2ccc(N(C[C@@H](N)[C@@H](C)CC)C(=O)[C@@H]3C[C@H]3c3ccccn3)cc2)cc1 (relative stereo) [compound 1, (1R*,2R*)-2-(pyridin-2-yl)-cyclopropanecarboxylic acid ((2S,3S)-2-amino-3-methylpentyl)-(4′-propylbiphenyl-4-yl)-amide]		P-glycoprotein substrate [3]: P-glycoprotein substrate
CC[C@H](C)[C@H](N)CN(C(=O)[C@@H]1C[C@H]1c1ccccn1)c1ccc(-c2ccc(Cl)cc2)cc1 (relative stereo) [5q, (1R*,2R*)-2-(Pyridin-2-yl)cyclopropanecarboxylic Acid [(2S,3S)-2-Amino-3-methylpentyl]-(4′-chlorobiphenyl-4-yl)amide]	213	
CC[C@H](C)[C@H](N)CN(C(=O)[C@@H]1C[C@H]1c1ccccn1)c1ccc(-c2ccc3c(c2)OCO3)cc1 (relative stereo) [5o, (1R*,2R*)-2-(Pyridin-2-yl)cyclopropanecarboxylic Acid [(2S,3S)-2-Amino-3-methylpentyl]-(3′,4′-methylenedioxybiphenyl-4-yl)amide]	204	EC50 ([1]; EC50 (nM)): 204 nM
